Measured values reported in ChEMBL document CHEMBL2029208 (Bioorg Med Chem, 2012).
Values after ≈ are worked out from the molar mass of the structure shown. Active and inactive are the calls of the source. The rule behind the calls is not given here.

Legend:
[1] = tested on: Mycobacterium tuberculosis; assay: Inhibition of Mycobacterium tuberculosis epoxide hydrolase E expressed in Escherichia coli BL21AI cells using cyano(6-methoxy-2-napthalenyl)methyl[(2,3)-3-phenyloxiranyl] methyl ester carbonate as substrate at 10 nM preincubated for 10 mins before substrate addition measured after 30 mins by spectrofluorometric analysis
[2] = mycobacterium tuberculosis h37ra, cytosol, 5 µM
[3] = tested on: Mycobacterium tuberculosis; assay: microbe, parasite or virus in culture; type: functional; settings: H37Ra
[4] = tested on: Mycobacterium tuberculosis; assay: Antimycobacterial activity against Mycobacterium tuberculosis H37Ra at 10 uM; type: functional, organism-based
[5] = molecular target: T1, Bifunctional epoxide hydrolase 2 (Homo sapiens, UniProt P34913);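 also: recombinant enzyme with CMNPC substrate, fluorescence readout of 6-methoxy-2-naphthaldehyde formed over a 10 min reaction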
T1 sequence (P34913 whole entry): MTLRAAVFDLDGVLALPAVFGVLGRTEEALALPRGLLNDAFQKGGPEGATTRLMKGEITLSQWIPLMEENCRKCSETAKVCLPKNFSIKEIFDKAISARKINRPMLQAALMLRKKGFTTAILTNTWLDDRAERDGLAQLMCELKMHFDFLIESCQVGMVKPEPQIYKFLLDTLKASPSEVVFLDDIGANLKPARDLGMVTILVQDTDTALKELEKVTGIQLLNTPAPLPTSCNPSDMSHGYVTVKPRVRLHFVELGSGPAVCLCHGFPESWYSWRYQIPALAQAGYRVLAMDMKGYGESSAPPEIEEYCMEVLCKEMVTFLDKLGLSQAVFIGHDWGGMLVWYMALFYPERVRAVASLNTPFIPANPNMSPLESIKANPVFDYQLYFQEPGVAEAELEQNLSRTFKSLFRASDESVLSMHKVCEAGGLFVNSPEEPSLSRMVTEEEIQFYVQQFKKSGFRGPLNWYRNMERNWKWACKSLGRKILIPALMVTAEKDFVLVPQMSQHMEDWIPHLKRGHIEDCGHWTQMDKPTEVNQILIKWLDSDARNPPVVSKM

[6] = tested on: Mycobacterium tuberculosis; assay: Antimycobacterial activity against Mycobacterium tuberculosis H37Ra infected in gamma interferon-knockout mouse assessed as reduction in lung CFU load at 150 mg/kg, po BID dosage beginning at 15 post infection for 9 days (reference value: 8.86 +/- 0.02 log10CFU); type: functional
[7] = tested on: Mycobacterium tuberculosis; assay: Antimycobacterial activity against Mycobacterium tuberculosis H37Ra infected in gamma interferon-knockout mouse assessed as reduction in spleen CFU load at 150 mg/kg, po BID dosage beginning at 15 post infection for 9 days (reference value: 7.30 +/- 0.09 log10CFU); type: functional

| SMILES | MIC [3] [µg/mL] | IC50 [5] [nM] | also measured |
| --- | --- | --- | --- |
| O=C(Nc1ccc(OCCCN2CCOCC2)cc1)NC12CC3CC(CC(C3)C1)C2 | > 17 | – | inhibition [1]: 19%; Drug uptake [2]: 103 ng |
| O=C(NC12CC3CC(CC(C3)C1)C2)N[C@H]1CC[C@H](OC(=O)c2ccccc2)CC1 | > 79 | 1 | Activity [4]: inactive |
| O=C(NC1CCCC(C(=O)N2CCOCC2)C1)NC12CC3CC(CC(C3)C1)C2 (stereo unspecified) | > 81 | 8.2 | – |
| O=C(NCCCCCOCCN1CCOCC1)NC12CC3CC(CC(C3)C1)C2 | > 79 | 2.3 | – |
| COC(=O)c1ccc(NC(=O)N[C@H]2CC[C@@H](Oc3cc(C(=O)OC)cc(C(=O)OC)c3)CC2)cc1 | 3.03 (≈ 6.25 µM) | 3.8 | – |
| COc1cc(NC(=O)NC23CC4CC(CC(C4)C2)C3)cc(C(F)(F)F)c1 | 0.58 (≈ 1.57 µM) | 1.7 | – |
| O=C(CCCCCCOCc1ccccc1)NC12CC3CC(CC(C3)C1)C2 | 9.24 (≈ 25 µM) | 66.5 | – |
| O=C(Nc1cccc(OC(F)(F)F)c1)NC12CC3CC(CC(C3)C1)C2 | 0.2 (≈ 0.564 µM) | 3.1 | – |
| O=C(Nc1ccc(I)cc1)NC12CC3CC(CC(C3)C1)C2 | 0.6 (≈ 1.51 µM) | 0.5 | – |
| O=C(Nc1ccc(CC(=O)c2ccccc2)cc1)NC12CC3CC(CC(C3)C1)C2 | 2.43 (≈ 6.25 µM) | 4.7 | – |
| O=C(Nc1ccc(Cl)c(Cl)c1)Nc1ccc(Cl)c(Cl)c1 | 2.19 (≈ 6.26 µM) | 28.1 | – |
| CCOC(=O)C(F)(F)Oc1ccc(NC(=O)NC23CC4CC(CC(C4)C2)C3)cc1 | 1.28 (≈ 3.13 µM) | 0.8 | – |
| O=C(Nc1cccc(C(=O)c2ccccc2)c1)NC12CC3CC(CC(C3)C1)C2 | 4.68 (≈ 12.5 µM) | 2.7 | – |
| COC(=O)CCc1ccc(NC(=O)NC23CC4CC(CC(C4)C2)C3)cc1 | 2.2 (≈ 6.17 µM) | 2 | – |
| O=C(Nc1ccc(Oc2ccccc2)cc1)NC12CC3CC(CC(C3)C1)C2 | 0.1 (≈ 0.276 µM) | 0.5 | – |
| O=C(Nc1cccc(C(F)(F)F)c1)NC1CCCCC1 | 1.79 (≈ 6.25 µM) | 8.7 | – |

| SMILES | MIC [3] [µg/mL] | IC50 [5] [nM] | also measured |
| --- | --- | --- | --- |
| CCCCCCCCCCCC(=O)NC12CC3CC(CC(C3)C1)C2 | 4.17 (≈ 12.5 µM) | 159 | – |
| COC(=O)Cc1ccc(NC(=O)NC23CC4CC(CC(C4)C2)C3)cc1 | 2.1 (≈ 6.13 µM) | 4.4 | – |
| COC(=O)c1ccc(NC(=O)NC2CCCCCC2)cc1 | 3.63 (≈ 12.5 µM) | 12.3 | Activity [4]: inactive |
| O=C(Nc1cccc(C(=O)NCC2CN(Cc3ccccc3)CCO2)c1)NC12CC3CC(CC(C3)C1)C2 (stereo unspecified) | > 101 | 13.6 | – |
| O=C(Nc1ccc(OC(F)(F)F)cc1)Nc1ccc(OC(F)(F)F)cc1 | 4.75 (≈ 12.5 µM) | 9.6 | – |
| O=C(Nc1ccc(N2CCOCC2)cc1)NC12CC3CC(CC(C3)C1)C2 | 18 (≈ 50.6 µM) | 5.2 | – |
| O=C(NC12CC3CC(CC(C3)C1)C2)N[C@H]1CC[C@H](Oc2ccc(C(F)(F)F)cn2)CC1 | > 88 | 4.8 | – |
| O=C(NC12CC3CC(CC(C3)C1)C2)N[C@H]1CC[C@@H](Oc2ccc(C(F)(F)F)cn2)CC1 | 1.37 (≈ 3.13 µM) | 1.8 | – |
| O=C(NCCCc1ccccc1)NC12CC3CC(CC(C3)C1)C2 | 0.7 (≈ 2.24 µM) | 1 | – |
| CC(C)(C)c1ccc(NC(=O)NC2CCCCC2)cc1 | 1.72 (≈ 6.27 µM) | 3.9 | – |
| COC(=O)c1ccc(NC(=O)NC2C3CC4CC(C3)CC2C4)cc1O (stereo unspecified) | 0.1 (≈ 0.29 µM) | – | log10cfu [6]: 8.74; log10cfu [7]: 7.33 |
| CC(=O)c1ccc(NC(=O)NC23CC4CC(CC(C4)C2)C3)cc1 | 2 (≈ 6.4 µM) | 6.3 | – |
| O=C(NCC1CCCCC1)Nc1cccc(Cl)c1 | 1.67 (≈ 6.26 µM) | 2.6 | – |
| CSc1ccc(NC(=O)NC23CC4CC(CC(C4)C2)C3)cc1 | 1.5 (≈ 4.74 µM) | 1.6 | – |
| O=C(NC1CCCC(C(=O)N2CCC(N3CCOCC3)CC2)C1)NC12CC3CC(CC(C3)C1)C2 (stereo unspecified) | > 95 | 6.1 | – |
